From ChEMBL document CHEMBL3734705, “Synthesis and in vitro cytotoxicity of novel C-12 substituted-14-deoxy-andrographolide derivatives as potent anti-cancer agents” (2015)
Activity calls are given as the source filed them. No cut-off for these calls is given here.

Key:
[1] = system: Malme-3M; experiment: Cytotoxicity against human MALME-3M cells assessed as growth level at 10 uM after 48 hrs by SRB assay; format: functional
[2] = Cytotoxicity against human UO31 cells assessed as growth level at 10 uM after 48 hrs by SRB assay; format: functional, UO-31
[3] = Cytotoxicity against human MOLT4 cells assessed as growth inhibition at 10 uM after 48 hrs by SRB assay; format: functional; details: MOLT-4, 48 h, read-out: GI
[4] = system: MDA-MB-468; experiment: Cytotoxicity against human MDA-MB-468 cells assessed as growth inhibition at 10 uM after 48 hrs by SRB assay; format: functional; details: MDA-MB-468, 48 h, read-out: GI
[5] = system: NCI-H322M; experiment: Cytotoxicity against human NCI-H322M cells assessed as growth level at 10 uM after 48 hrs by SRB assay; format: functional
[6] = system: NCI-H522; experiment: Cytotoxicity against human NCI-H522 cells assessed as growth level at 10 uM after 48 hrs by SRB assay; format: functional
[7] = Cytotoxicity against human MOLT4 cells assessed as growth level at 10 uM after 48 hrs by SRB assay; format: functional, MOLT-4
[8] = Cytotoxicity against human SW620 cells assessed as growth inhibition at 10 uM after 48 hrs by SRB assay; format: functional; details: SW-620, 48 h, read-out: GI
[9] = system: U-251; experiment: Cytotoxicity against human U251 cells assessed as growth level at 10 uM after 48 hrs by SRB assay; format: functional
[10] = Cytotoxicity against human SF539 cells assessed as growth level at 10 uM after 48 hrs by SRB assay; format: functional, SF-539
[11] = Cytotoxicity against human DU145 cells assessed as growth level at 10 uM after 48 hrs by SRB assay; format: functional, DU-145
[12] = Cytotoxicity against human TK10 cells assessed as growth level at 10 uM after 48 hrs by SRB assay; format: functional, TK-10
[13] = Cytotoxicity against human OVCAR5 cells assessed as growth level at 10 uM after 48 hrs by SRB assay; format: functional, OVCAR-5
[14] = system: SR; experiment: Cytotoxicity against human SR cells assessed as growth inhibition at 10 uM after 48 hrs by SRB assay; format: functional; details: read-out: GI
[15] = Cytotoxicity against human HOP92 cells assessed as growth level at 10 uM after 48 hrs by SRB assay; format: functional, HOP-92
[16] = Cytotoxicity against human Caki1 cells assessed as growth inhibition at 10 uM after 48 hrs by SRB assay; format: functional; details: CAKI-1, 48 h, read-out: GI
[17] = Cytotoxicity against human HCT116 cells assessed as growth inhibition at 10 uM after 48 hrs by SRB assay; format: functional; details: HCT-116, 48 h, read-out: GI
[18] = system: K562; experiment: Cytotoxicity against human K562 cells assessed as growth inhibition at 10 uM after 48 hrs by SRB assay; format: functional; details: K562, 48 h, read-out: GI
[19] = system: EKVX; experiment: Cytotoxicity against human EKVX cells assessed as growth inhibition at 10 uM after 48 hrs by SRB assay; format: functional
[20] = system: A549; experiment: Cytotoxicity against human A549 cells assessed as growth level at 10 uM after 48 hrs by SRB assay; format: functional
[21] = system: NCI-H226; experiment: Cytotoxicity against human NCI-H226 cells assessed as growth level at 10 uM after 48 hrs by SRB assay; format: functional
[22] = system: A549; experiment: Cytotoxicity against human A549 cells assessed as growth inhibition at 10 uM after 48 hrs by SRB assay; format: functional; details: A549, 48 h, read-out: GI
[23] = system: 786-0; experiment: Cytotoxicity against human 786-0 cells assessed as growth level at 10 uM after 48 hrs by SRB assay; format: functional
[24] = Cytotoxicity against human BT549 cells assessed as growth inhibition at 10 uM after 48 hrs by SRB assay; format: functional; details: BT-549, 48 h, read-out: GI
[25] = system: CCRF-CEM; experiment: Cytotoxicity against human CCRF-CEM cells assessed as growth inhibition at 10 uM after 48 hrs by SRB assay; format: functional; details: read-out: GI
[26] = system: T47D; experiment: Cytotoxicity against human T47D cells assessed as growth inhibition at 10 uM after 48 hrs by SRB assay; format: functional; details: read-out: GI
[27] = system: K562; experiment: Cytotoxicity against human K562 cells assessed as growth level at 10 uM after 48 hrs by SRB assay; format: functional
[28] = Cytotoxicity against human RXF393 cells assessed as growth level at 10 uM after 48 hrs by SRB assay; format: functional, RXF 393
[29] = Cytotoxicity against human OVCAR4 cells assessed as growth level at 10 uM after 48 hrs by SRB assay; format: functional, OVCAR-4
[30] = system: HT-29; experiment: Cytotoxicity against human HT-29 cells assessed as growth level at 10 uM after 48 hrs by SRB assay; format: functional
[31] = Cytotoxicity against human COLO205 cells assessed as growth level at 10 uM after 48 hrs by SRB assay; format: functional, COLO 205
[32] = Cytotoxicity against human SF295 cells assessed as growth level at 10 uM after 48 hrs by SRB assay; format: functional, SF-295
[33] = Cytotoxicity against human LOXIMVI cells assessed as growth inhibition at 10 uM after 48 hrs by SRB assay; format: functional; details: LOX IMVI, read-out: GI
[34] = Cytotoxicity against human LOXIMVI cells assessed as growth level at 10 uM after 48 hrs by SRB assay; format: functional, LOX IMVI
[35] = Cytotoxicity against human BT549 cells assessed as growth level at 10 uM after 48 hrs by SRB assay; format: functional, BT-549
[36] = Cytotoxicity against human TK10 cells assessed as growth inhibition at 10 uM after 48 hrs by SRB assay; format: functional; details: TK-10, 48 h, read-out: GI
[37] = system: NCI-H23; experiment: Cytotoxicity against human NCI-H23 cells assessed as growth inhibition at 10 uM after 48 hrs by SRB assay; format: functional; details: NCI-H23, 48 h, read-out: GI
[38] = system: SK-MEL-28; experiment: Cytotoxicity against human SK-MEL-28 cells assessed as growth inhibition at 10 uM after 48 hrs by SRB assay; format: functional; details: SK-MEL-28, 48 h, read-out: GI
[39] = Cytotoxicity against human SF268 cells assessed as growth inhibition at 10 uM after 48 hrs by SRB assay; format: functional; details: SF-268, 48 h, read-out: GI
[40] = Cytotoxicity against human SNB19 cells assessed as growth level at 10 uM after 48 hrs by SRB assay; format: functional, SNB-19
[41] = Cytotoxicity against human RPMI8226 cells assessed as growth inhibition at 10 uM after 48 hrs by SRB assay; format: functional; details: RPMI-8226, 48 h, read-out: GI
[42] = Cytotoxicity against human PC3 cells assessed as growth inhibition at 10 uM after 48 hrs by SRB assay; format: functional; details: PC-3, 48 h, read-out: GI
[43] = system: NCI-H522; experiment: Cytotoxicity against human NCI-H522 cells assessed as growth inhibition at 10 uM after 48 hrs by SRB assay; format: functional; details: NCI-H522, 48 h, read-out: GI
[44] = Cytotoxicity against human HOP62 cells assessed as growth level at 10 uM after 48 hrs by SRB assay; format: functional, HOP-62
[45] = Cytotoxicity against human HOP62 cells assessed as growth inhibition at 10 uM after 48 hrs by SRB assay; format: functional; details: HOP-62, 48 h, read-out: GI

C=C1CC[C@@H]2[C@](C)(COC(C)=O)[C@H](OC(C)=O)CC[C@@]2(C)[C@@H]1CC(NCc1cccc(Cl)c1)C1=CCOC1=O (mixture of isomers)
Activity [1]: 76.11% | Activity [2]: 46.94% | inhibition of growth at 10 µM [3]: 78.1% | inhibition of growth at 10 µM [4]: 74.4% | Activity [5]: 75.37% | Activity [6]: 52.45% | Activity [7]: 21.89% | inhibition of growth at 10 µM [8]: 61.7% | Activity [9]: 30.91% | Activity [10]: 74.12% | Activity [11]: 81.85% | Activity [12]: 63.29% | Activity [13]: 99.69% | inhibition of growth at 10 µM [14]: 88.5% | Activity [15]: 66.34% | inhibition of growth at 10 µM [16]: 51.7% | inhibition of growth at 10 µM [17]: 64.1% | inhibition of growth at 10 µM [18]: 81.5% | inhibition of growth at 10 µM ([19]; read-out: GI): 22.1% | Activity [20]: 54.21% | Activity [21]: 46.32% | inhibition of growth at 10 µM [22]: 45.8% | Activity [23]: 62% | inhibition of growth at 10 µM [24]: 50.3% | inhibition of growth at 10 µM [25]: 57.7% | inhibition of growth at 10 µM [26]: 49.3% | Activity [27]: 18.48% | Activity [28]: 50.51% | Activity [29]: 50.4% | Activity [30]: 25.54% | Activity [31]: 36.77% | Activity [32]: 85.92% | inhibition of growth at 10 µM [33]: 87.3% | Activity [34]: 12.71% | Activity [35]: 49.66% | inhibition of growth at 10 µM [36]: 36.7% | inhibition of growth at 10 µM [37]: 47.3% | inhibition of growth at 10 µM [38]: 23.4% | inhibition of growth at 10 µM [39]: 46.7% | Activity [40]: 55.56% | inhibition of growth at 10 µM [41]: 72.8% | inhibition of growth at 10 µM [42]: 69.9% | inhibition of growth at 10 µM [43]: 47.5% | Activity [44]: 56% | inhibition of growth at 10 µM [45]: 44%

C=C1CC[C@@H]2[C@](C)(CO)[C@H](O)CC[C@@]2(C)[C@@H]1C/C=C1/C(=O)OC[C@H]1O [ANDROGRAPHOLIDE]
Activity [1]: 99.78% | Activity [2]: 89.6% | inhibition of growth at 10 µM [3]: 1.89% | inhibition of growth at 10 µM [4]: 58% | Activity [5]: 92.74% | Activity [6]: 17.13% | Activity [7]: 98.11% | inhibition of growth at 10 µM [8]: 55.7% | Activity [9]: 75.79% | Activity [10]: 83.41% | Activity [11]: 80.06% | Activity [12]: 97.49% | Activity [13]: 104.24% | inhibition of growth at 10 µM [14]: 20.5% | Activity [15]: 107.7% | inhibition of growth at 10 µM [16]: 3.3% | inhibition of growth at 10 µM [17]: 40% | inhibition of growth at 10 µM [18]: 34.5% | growth inhibition (GI) [19]: inactive | Activity [20]: 87.82% | Activity [21]: 91.74% | inhibition of growth at 10 µM [22]: 12.2% | Activity [23]: 84.71% | inhibition of growth at 10 µM [24]: 12.9% | inhibition of growth at 10 µM [25]: 76.5% | inhibition of growth at 10 µM [26]: 12.2% | Activity [27]: 65.53% | Activity [28]: 125.24% | Activity [29]: 82.87% | Activity [30]: 27% | Activity [31]: 94.9% | Activity [32]: 113.89% | inhibition of growth at 10 µM [33]: 78.2% | Activity [34]: 21.84% | Activity [35]: 87.11% | inhibition of growth at 10 µM [36]: 2.51% | inhibition of growth at 10 µM [37]: 2.11% | inhibition of growth at 10 µM [38]: 4.54% | inhibition of growth at 10 µM [39]: 2.34% | Activity [40]: 88.03% | inhibition of growth at 10 µM [41]: 16.7% | inhibition of growth at 10 µM [42]: 6.6% | inhibition of growth at 10 µM [43]: 82.9% | Activity [44]: 96.27% | inhibition of growth at 10 µM [45]: 3.73%
